According to the supplement of paper PMC10290057:
Where a name gives a salt, the structure may show the parent alone.
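Note: Luminescence-based viability readout, five doses per compound, normalized against on-plate DMSO and empty-well controls, followed by dose-response curve fitting for every drug.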

Each compound was assayed on HCT116 (assay: efficacy (fitted maximal change in viability relative to DMSO control); higher = less cytotoxic (negative = loss of viability)). Settings: 48 h.
In the case of Cc1cc(O)cc2c1[C@]1(C)CC[C@H]3C(C)(C)CCC[C@]3(C)[C@H]1C2 [AQX-MN-100], the efficacy is reported as 19.8%.
For CC1=CC=C(C=C1)\C2=N\C3=CC=C(Cl)C=C3OC2 [AR-7], the efficacy was -31.7%.
Work on CC(C)[C@H](C(=O)Nc1ccc(C(=O)NO)cc1)c1ccccc1 [AR-42] yielded an efficacy of -43.8%.
C=CC(=O)N1CC(N2CCN(C(=O)CNc3cc(C4(C)CC4)c(Cl)cc3O)CC2)C1 [ARS-853] was tested, and the efficacy was -63.4%.
CN[C@@H](C)C(=O)N[C@H]1CN(C(=O)CC(C)C)CC[C@H]2CC[C@@H](C(=O)NC(c3ccccc3)c3ccccc3)N2C1=O [AT-406] showed an efficacy of -8.4%.
C[C@@H]1CN(CC(=O)N2CC(C)(C)c3ncc(Cc4ccc(F)cc4)cc32)[C@@H](CN2CCOC[C@H]2C)CN1 [AT-IAP] gave an efficacy of -62.8%.
CC(=O)N1CCC[C@H]1C(=O)N[C@@H](Cc1c[nH]cn1)C(=O)N[C@@H](CO)C(=O)N[C@@H](CS)C(=O)N[C@@H](CC(N)=O)C(N)=O [ATN-161] showed an efficacy of -6.15%.
COC1=CC2=C(OC\C(=C2\C3=CC=C(F)C=C3)CN4CCCC4)C=C1 [AX-024] showed an efficacy of -55.9%.
Compound CCN(CCCOc1ccc2c(Nc3cc(CC(=O)Nc4cccc(F)c4)[nH]n3)ncnc2c1)CCOP(=O)(O)O [AZD1152] has an efficacy of -24.9%.
For C[N]1N=CC=C1C/2=C(\C)N(C(=O)C(=C2)/C(=O)NCC3=NC=C(C=C3)[S+](C)([O-])=O)C4=CC=CC(=C4)C(F)(F)F [AZD9668], the efficacy was 12.5%.
Work on NC(=O)c1cnc(-c2ccc(C3(N)CCC3)cc2)c(-c2ccccc2)c1 [AZD-26] yielded an efficacy of -66.9%.
With COC1CCN(CC1)C(=O)C2=CC(=CC=C2F)CC/3=N/NC(=O)C4=CC=CC=C34 [AZD-2461] the efficacy was -29.2%.
Compound Cc1noc(C)c1-c1ccc(-c2cc(C(N)=O)c(NC(N)=O)s2)c(O[C@H]2CCNC2)c1 [AZD-3264] has an efficacy of -40.3%.
Work on COc1cc2ncnc(Nc3cccc(Cl)c3F)c2cc1OC(=O)N1CCN(C)C[C@H]1C [AZD-3759] yielded an efficacy of -38.2%.
Cc1[nH]nc(C(F)(F)F)c1Cc1sc2c(c1C(=O)N1C[C@](C)(O)CO1)c(=O)n(C)c(=O)n2C(C)C [AZD-3965] showed an efficacy of -11.2%.
With CC(C)C[C@H](CO)Nc1nc(S[C@@H](C)c2ccccc2)nc2nc(N)sc12 [AZD-8797] the efficacy was -86.1%.
For CCn1nc(C2CCN(C(=O)CCO)CC2)nc1-c1cnc(N)c(-c2nnc(C(C)(C)C)o2)n1 [AZD-8835], the efficacy was -18.9%.
C[C@@H]1Cc2c([nH]c3ccccc23)[C@@H](c2c(F)cc(/C=C/C(=O)O)cc2F)N1CC(C)(C)F [AZD-9496 maleate] was tested, and the efficacy was -13.1%.
C[C@]\12CC[C@H](O)CC1=C/C[C@@H]3[C@@H]2CC[C@@]\4(C)[C@H]3C\C=C4C5=CN=CC=C5 [Abiraterone] showed an efficacy of 7.6%.
CC(=O)NCCC(=O)N[C@@H](CCC(N)=O)C(=O)N[C@@H](CO)C(=O)N[C@@H](CCC(N)=O)C(=O)N[C@@H](CCC(N)=O)C(=O)N[C@H](C(=O)N[C@@H](Cc1ccccc1)C(=O)N[C@]1(C)CCCCCC/C=C\CCC[C@@](C)(C(=O)N[C@@H](CCC(N)=O)C(=O)N[C@@H](CC(N)=O)C(N)=O)NC(=O)[C@H](CC(C)C)NC(=O)[C@H](CC(C)C)NC(=O)[C@@H](CCCNC(=N)N)NC(=O)[C@H](Cc2c[nH]c3ccccc23)NC(=O)[C@H](CC(C)C)NC(=O)[C@H](CC(N)=O)NC1=O)[C@H](C)O [Ac-SAH-p53-8] gave an efficacy of -6.69%.
For NC(=O)c1ncn([C@@H]2O[C@H](CO)[C@@H](O)[C@H]2O)c1N [Acadesine], the efficacy was 7.93%.
For CC#CC(=O)N1CCC[C@H]1c1nc(-c2ccc(C(=O)Nc3ccccn3)cc2)c2c(N)nccn12 [Acalabrutinib], the efficacy was -13.7%.
C[C@H](NC1=NC=NC2=C1[NH]C=N2)\C3=N\C4=C(C=C(F)C=C4)C(=O)N3C5=CC=CC=C5 [Acalisib] showed an efficacy of -38.2%.
For CC(=O)Nc1ccc(O)cc1 [Acetaminophen], the efficacy was 8.22%.
In the case of N\C1=N\C2=C(N=C[N]2COCCO)C(=O)N1 [Aciclovir], the efficacy is reported as -8.84%.
Compound Cc1cnc(C(=O)O)c[n+]1[O-] [Acipimox] has an efficacy of -8.25%.
O=C(O)C(=O)Nc1cccc(-c2nnn[nH]2)c1 [Acitazanolast] was tested, and the efficacy was 17%.
COc1cc(C)c(/C=C/C(C)=C/C=C/C(C)=C/C(=O)O)c(C)c1C [Acitretin] was tested, and the efficacy was -17.3%.
COc1ccc(-c2ccc3cc(C(=O)O)ccc3c2)cc1C12CC3CC(CC(C3)C1)C2 [Adapalene] gave an efficacy of 9.71%.
COC(=O)N1CC2(CC2)C[C@H](C(=O)NO)[C@H]1C(=O)N1CCN(c2ccccc2)CC1 [Aderbasib] gave an efficacy of -17%.
COc1ccc2cccc(CCNC(C)=O)c2c1 [Agomelatine] showed an efficacy of -12.5%.
Compound CN(C)CC(C)(C)CNc1nn2c(-c3ccccc3)nnc2cc1C1CCC1 [Akt-I-1] has an efficacy of -8.48%.
In the case of CN(C)CCc1c[nH]c2ccc(C[S+](=O)([O-])N3CCCC3)cc12 [Almotriptan], the efficacy is reported as -6.46%.
For CCOC(=O)[C@H]1O[C@@H]1C(=O)N[C@@H](CC(C)C)C(=O)NCCC(C)C [Aloxistatin], the efficacy was -5.94%.
In the case of CCCCC[C@H](O)/C=C/[C@H]1[C@H](O)CC(=O)[C@@H]1CCCCCCC(=O)O [Alprostadil], the efficacy is reported as -12.3%.
In the case of O=C(Nc1cc(Oc2cc(F)c(NC(=O)C3(C(=O)Nc4ccc(F)cc4)CC3)cc2F)ccn1)C1CC1 [Altiratinib], the efficacy is reported as -68.8%.
In the case of CN(C)c1nc(N(C)C)nc(N(C)C)n1 [Altretamine], the efficacy is reported as -12.2%.
NC12CC3CC(CC(C3)C1)C2 [Amantadine hydrochloride] showed an efficacy of -15.1%.
Work on COC(c1ccccc1)(c1ccccc1)[C@H](Oc1nc(C)cc(C)n1)C(=O)O [Ambrisentan] yielded an efficacy of -8.06%.
With N=C(N)NC(=O)c1nc(Cl)c(N)nc1N [Amiloride hydrochloride] the efficacy was -10.8%.
Work on NCCCCCC(=O)O [Aminocaproic acid] yielded an efficacy of -11.3%.
Work on CCN1CCCC1CNC(=O)c1cc([S+](=O)([O-])CC)c(N)cc1OC (configuration not stated) [Amisulpride] yielded an efficacy of -6.46%.
For CC(C)c1ccc2oc3nc(N)c(C(=O)O)cc3c(=O)c2c1 [Amlexanox], the efficacy was -24.9%.
CC1(C)[C@@H](O[C@H]2O[C@H](C(=O)O)[C@@H](O)[C@H](O)[C@H]2O[C@@H]2O[C@H](C(=O)O)[C@@H](O)[C@H](O)[C@H]2O)CC[C@]2(C)[C@H]3C(=O)C=C4[C@@H]5C[C@@](C)(C(=O)O)CC[C@]5(C)CC[C@@]4(C)[C@]3(C)CC[C@@H]12 [Ammonium Glycyrrhizinate] showed an efficacy of 7.39%.
Work on CCC(C)(C)c1ccc(CC(C)CN2C[C@@H](C)O[C@@H](C)C2)cc1 (some centres not stated) [Amorolfine hydrochloride] yielded an efficacy of -10%.
Work on CC1(C)S[C@H]2[C@H](NC(=O)[C@@H](N)c3ccc(O)cc3)C(=O)N2[C@H]1C(=O)O [Amoxicillin sodium] yielded an efficacy of 6.82%.
C[C@@H]1CC2=C(C=C3OCOC3=C2)C(=N\N1C(C)=O)/C4=CC=C(N)C=C4 [Ampanel] showed an efficacy of -12.4%.
C[C@@H]1[C@H](O)[C@@H](C)/C=C/C=C/C=C/C=C/C=C/C=C/C=C/[C@H](O[C@@H]2O[C@H](C)[C@@H](O)[C@H](N)[C@@H]2O)C[C@@H]2O[C@](O)(C[C@@H](O)C[C@@H](O)[C@H](O)CC[C@@H](O)C[C@@H](O)CC(=O)O[C@H]1C)C[C@H](O)[C@H]2C(=O)O [Amphotericin B] was tested, and the efficacy was -15.3%.
N#CC(O[C@@H]1O[C@H](CO[C@@H]2O[C@H](CO)[C@@H](O)[C@H](O)[C@H]2O)[C@@H](O)[C@H](O)[C@H]1O)c1ccccc1 (some centres not stated) [Amygdalin] was tested, and the efficacy was 29%.
COc1cc(F)c(C(C)C)cc1-c1ccc(C(F)(F)F)cc1CN1C(=O)O[C@H](c2cc(C(F)(F)F)cc(C(F)(F)F)c2)[C@@H]1C [Anacetrapib] showed an efficacy of -14.3%.
For ClC1=CC=C2N/C3=N/C(=O)CN3CC2=C1Cl [Anagrelide], the efficacy was -14.6%.
Work on CN(C)N(C)C(=O)[C@@]1(Cc2ccccc2)CCCN(C(=O)[C@@H](Cc2c[nH]c3ccccc23)NC(=O)C(C)(C)N)C1 [Anamorelin] yielded an efficacy of -33.8%.
For CC(C)(C#N)c1cc(Cn2cncn2)cc(C(C)(C)C#N)c1 [Anastrozole], the efficacy was -11.5%.
CC(=O)Nc1ccc(OC[C@](C)(O)C(=O)Nc2ccc([N+](=O)[O-])c(C(F)(F)F)c2)cc1 [Andarine] was tested, and the efficacy was -7.63%.
For COc1ccc(C(=O)N2CCCC2=O)cc1 [Aniracetam], the efficacy was -17.4%.
Work on CNC(=O)c1ccc(N2C(=S)N(c3cnc(C#N)c(C(F)(F)F)c3)C(=O)C23CCC3)cc1F [Apalutamide] yielded an efficacy of -24.3%.
For N#CC1(c2ccc(NC(=O)c3cccnc3NCc3ccncc3)cc2)CCCC1 [Apatinib], the efficacy was -32.7%.
With Cn1c(/C=C/CO)c(CO)c2c1C(=O)C=C(N1CC1)C2=O [Apaziquone] the efficacy was -8.27%.
With OC1=CC=C(C=C1)\C2=C\C(=O)C3=C(O2)C=C(O)C=C3O [Apigenin] the efficacy was -82%.
Work on NNc1nncc2ccccc12 [Apresoline] yielded an efficacy of 28.9%.
Compound CC1CNc2c(cccc2[S+](=O)([O-])N[C@@H](CCCNC(=N)N)C(=O)N2CC[C@@H](C)C[C@@H]2C(=O)O)C1 (some centres not stated) [Argatroban] has an efficacy of -15.9%.
CO[C@H]1O[C@@H]2O[C@@]3(C)CC[C@H]4[C@H](C)CC[C@@H]([C@H]1C)[C@@]24OO3 [Artemether] showed an efficacy of -12.5%.
CN1C[C@@H]2c3ccccc3Oc3ccc(Cl)cc3[C@H]2C1 [Asenapine maleate] showed an efficacy of -77.1%.
CC(C)(O)[C@H]1CC[C@@](C)([C@H]2[C@@H](O)C[C@@]3(C)[C@@H]4C[C@H](O[C@@H]5O[C@H](CO)[C@@H](O)[C@H](O)[C@H]5O)[C@H]5C(C)(C)[C@@H](O[C@@H]6OC[C@@H](O)[C@H](O)[C@H]6O)CC[C@@]56C[C@@]46CC[C@]23C)O1 [Astragaloside A] gave an efficacy of 6.04%.
CC/1=C/2C[C@H]3C(=C)CCC[C@]3(C)/C=C2OC1=O [Atractylenolide I] showed an efficacy of 6.55%.
With CN1C2CCC1CC(OC(=O)C(CO)c1ccccc1)C2 (configuration not stated) [Atropine (sulfate monohydrate)] the efficacy was -6.96%.
Work on COc1ccc([C@@H]2CC(=O)c3c(O)cc(O[C@@H]4O[C@H](CO[C@@H]5O[C@@H](C)[C@H](O)[C@@H](O)[C@H]5O)[C@@H](O)[C@H](O)[C@H]4O)cc3O2)cc1O [Aurantiamarin (Methyl Hesperidin)] yielded an efficacy of -15%.
